pIC50: −log10 of the molar value.

For the assay, the target named is H1047R PIK3CA enzyme (Homo sapiens, UniProt P42336, H1047R). Put plainly: ADP-Glo Biochemical PIK3CA Kinase Assay. Background: In ADP-Glo the light output rises with the ADP produced.
H1047R PIK3CA enzyme, sequence (P42336 whole entry H1047R): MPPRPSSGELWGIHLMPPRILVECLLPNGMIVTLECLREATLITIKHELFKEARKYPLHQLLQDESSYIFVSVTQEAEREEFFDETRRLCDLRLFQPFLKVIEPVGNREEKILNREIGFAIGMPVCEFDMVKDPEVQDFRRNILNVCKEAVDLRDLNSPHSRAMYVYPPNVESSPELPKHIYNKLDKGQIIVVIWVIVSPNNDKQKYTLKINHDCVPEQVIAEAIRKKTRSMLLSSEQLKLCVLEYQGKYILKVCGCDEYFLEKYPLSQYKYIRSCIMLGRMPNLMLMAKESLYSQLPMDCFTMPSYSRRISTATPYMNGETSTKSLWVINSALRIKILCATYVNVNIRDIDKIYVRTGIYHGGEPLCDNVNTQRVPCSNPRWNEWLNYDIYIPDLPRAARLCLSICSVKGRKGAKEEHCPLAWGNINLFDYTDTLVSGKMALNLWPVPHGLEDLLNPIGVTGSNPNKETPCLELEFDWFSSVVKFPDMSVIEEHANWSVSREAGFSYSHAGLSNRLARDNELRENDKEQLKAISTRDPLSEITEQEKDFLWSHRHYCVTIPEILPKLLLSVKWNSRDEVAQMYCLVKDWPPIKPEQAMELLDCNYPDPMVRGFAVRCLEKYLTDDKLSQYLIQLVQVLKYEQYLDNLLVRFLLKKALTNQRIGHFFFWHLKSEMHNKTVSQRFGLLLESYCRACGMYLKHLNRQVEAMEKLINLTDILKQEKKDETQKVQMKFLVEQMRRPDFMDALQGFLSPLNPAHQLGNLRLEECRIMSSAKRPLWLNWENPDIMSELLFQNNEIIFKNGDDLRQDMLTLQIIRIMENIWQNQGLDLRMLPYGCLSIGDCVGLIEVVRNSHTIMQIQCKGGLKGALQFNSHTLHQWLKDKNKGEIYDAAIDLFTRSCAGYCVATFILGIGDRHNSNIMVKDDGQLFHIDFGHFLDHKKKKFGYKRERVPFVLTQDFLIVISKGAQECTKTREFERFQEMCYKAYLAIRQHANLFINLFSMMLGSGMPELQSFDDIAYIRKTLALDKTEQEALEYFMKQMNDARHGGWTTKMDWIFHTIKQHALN
H1047R PIK3CA enzyme, sequence (P27986 whole entry partner): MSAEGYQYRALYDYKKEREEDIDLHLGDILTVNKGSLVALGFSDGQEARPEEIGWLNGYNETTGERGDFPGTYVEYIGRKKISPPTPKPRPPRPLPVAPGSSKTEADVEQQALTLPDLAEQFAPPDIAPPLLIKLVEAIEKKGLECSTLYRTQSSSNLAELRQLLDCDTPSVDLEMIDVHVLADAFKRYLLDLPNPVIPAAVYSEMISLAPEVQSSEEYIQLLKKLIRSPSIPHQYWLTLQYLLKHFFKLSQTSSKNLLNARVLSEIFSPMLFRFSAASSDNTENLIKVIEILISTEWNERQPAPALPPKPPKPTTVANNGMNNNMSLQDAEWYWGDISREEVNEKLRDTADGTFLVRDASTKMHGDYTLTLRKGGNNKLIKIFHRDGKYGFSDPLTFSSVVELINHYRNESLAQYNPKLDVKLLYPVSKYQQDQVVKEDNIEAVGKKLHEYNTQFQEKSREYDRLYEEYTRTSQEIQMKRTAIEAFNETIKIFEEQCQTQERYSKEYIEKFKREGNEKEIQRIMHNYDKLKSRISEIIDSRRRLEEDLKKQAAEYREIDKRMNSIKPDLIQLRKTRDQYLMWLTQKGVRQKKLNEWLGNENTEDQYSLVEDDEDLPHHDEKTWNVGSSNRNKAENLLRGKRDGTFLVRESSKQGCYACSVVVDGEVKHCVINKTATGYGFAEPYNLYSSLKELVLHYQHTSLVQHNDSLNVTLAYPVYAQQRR
The term pIC50 denotes the negative decadic logarithm of the IC50, by convention in mol/L. A high value points to a small IC50. The molecule `O=C(Nc1cc(C(O)CN2CC(F)(F)C2)cc2c1C(c1cc(F)ccc1Cl)NC2=O)c1cc(F)cc(Cl)c1` (stereo not drawn) [Compound I-334] gave a pIC50 of 6.30 to 7.00.
The result for `COc1ncc2c(c1NC(=O)c1cc(F)cc(C(F)(F)F)c1)C(c1ccccc1Cl)NC2=O` (stereo not drawn) [Compound I-335, N-(1-(2-chlorophenyl)-6-methoxy-3-oxo-2,3-dihydro-1H-pyrrolo[3,4-c]pyridin-7-yl)-3-fluoro-5-(trifluoromethyl)benzamide] reads 4.00 to 5.00; that for `Cn1cc(C(=O)Nc2cc(NC(=O)c3cc(F)cc(C(F)(F)F)c3)c3c(c2)C(=O)NC3c2cc(F)ccc2Cl)cn1` (stereo not drawn) [Compound I-336], at least 7.00; that for `Cc1ccccc1C1NC(=O)c2cccc(NC(=O)c3cc(C(F)(F)F)ccn3)c21` (stereo not drawn) [Compound I-337], 4.00 to 5.00.
The result for `O=C(Nc1cc(NCC(F)F)nc2c1C(c1cc(F)ccc1Cl)NC2=O)c1cc(F)cc(C(F)(F)F)c1` (stereo not drawn) [Compound I-338] reads at least 7.00; that for `Cc1ccccc1C1NC(=O)c2c(C(N)=O)ccc(NC(=O)c3cc(F)cc(C(F)(F)F)c3)c21` (stereo not drawn) [Compound I-339], 6.30 to 7.00.
The molecule `COc1cc(F)cc(C(=O)Nc2cccc3c2C(c2ccccc2C)NC3=O)c1` (stereo not drawn) [Compound I-340] showed a pIC50 of 5.00 to 6.00.
The result for `COc1cc(F)c(F)c(C(=O)Nc2cccc3c2C(c2ccccc2C)NC3=O)c1` (stereo not drawn) [Compound I-341] reads 4.00 to 5.00.
For `Cc1ccccc1C1NC(=O)c2cccc(NC(=O)c3nc(C)c4c(F)cc(F)cn34)c21` (stereo not drawn) [Compound I-342], the pIC50 is 4.00 to 5.00.
As for `O=C(Nc1cc(NC(=O)C2COC2)cc2c1C(c1cc(F)ccc1Cl)NC2=O)c1cc(F)cc(C(F)(F)F)c1` (stereo not drawn) [Compound I-344], the pIC50 was at least 7.00.
In the case of `O=C(CO)Nc1cc(NC(=O)c2cc(F)cc(C(F)(F)F)c2)c2c(c1)C(=O)NC2c1cc(F)ccc1Cl` (stereo not drawn) [Compound I-345] it was at least 7.00; in that of `COCC(=O)Nc1cc(NC(=O)c2cc(F)cc(C(F)(F)F)c2)c2c(c1)C(=O)NC2c1cc(F)ccc1Cl` (stereo not drawn) [Compound I-346], at least 7.00; in that of `O=C(Nc1cc(NC(=O)C2CCOCC2)cc2c1C(c1cc(F)ccc1Cl)NC2=O)c1cc(F)cc(C(F)(F)F)c1` (stereo not drawn) [Compound I-347], at least 7.00.
The result for `O=C(Nc1cc(CN2CC(F)(F)C2)cc2c1C(c1cc(F)ccc1Cl)NC2=O)c1cc(F)cc(C(F)(F)F)c1` (stereo not drawn) [Compound I-348, N-(3-(2-Chloro-5-fluorophenyl)-6-((3,3-difluoroazetidin-1-yl)methyl)-1-oxoisoindolin-4-yl)-3-fluoro-5-(trifluoromethyl)benzamide] reads at least 7.00; that for `O=C(Nc1cc(CNC2CC(F)(F)C2)cc2c1C(c1cc(F)ccc1Cl)NC2=O)c1cc(F)cc(C(F)(F)F)c1` (stereo not drawn) [Compound I-349], at least 7.00.
The molecule `O=C(Nc1cc(CN2CCNCC2)cc2c1C(c1cc(F)ccc1Cl)NC2=O)c1cc(F)cc(C(F)(F)F)c1` (stereo not drawn) [Compound I-350] gave a pIC50 of at least 7.00.
In the case of `O=C(Nc1cc(NC(=O)C2CS(=O)(=O)C2)cc2c1C(c1cc(F)ccc1Cl)NC2=O)c1cc(F)cc(C(F)(F)F)c1` (stereo not drawn) [Compound I-351] it was at least 7.00; in that of `O=C(Nc1cc(CNC2COC2)cc2c1C(c1cc(F)ccc1Cl)NC2=O)c1cc(F)cc(C(F)(F)F)c1` (stereo not drawn) [Compound I-352], at least 7.00.
The result for `O=C(Nc1cc(CN2CCC(F)(F)C2)cc2c1C(c1cc(F)ccc1Cl)NC2=O)c1cc(F)cc(C(F)(F)F)c1` (stereo not drawn) [Compound I-353] reads at least 7.00; that for `O=C(Nc1cc(-n2cc(F)cn2)nc2c1C(c1cc(F)ccc1Cl)NC2=O)c1cc(F)cc(C(F)(F)F)c1` (stereo not drawn) [Compound I-354], 6.30 to 7.00; that for `CC(C)(O)c1cc(NC(=O)c2cc(F)cc(C(F)(F)F)c2)c2c(c1)C(=O)NC2c1ccccc1C(F)F` (stereo not drawn) [Compound I-355], at least 7.00.
On to `CC(C)(O)c1cc(NC(=O)c2nsc3ccccc23)c2c(c1)C(=O)NC2c1ccccc1C(F)F` (stereo not drawn) [Compound I-356], for which the pIC50 is at least 7.00.
In the case of `O=C(Nc1cc(N2CCC(F)(F)C2)nc2c1C(c1cc(F)ccc1Cl)NC2=O)c1cc(F)cc(C(F)(F)F)c1` (stereo not drawn) [Compound I-357] it was at least 7.00; in that of `O=C(Nc1cc(N2CCOCC2)nc2c1C(c1cc(F)ccc1Cl)NC2=O)c1cc(F)cc(C(F)(F)F)c1` (stereo not drawn) [Compound I-358], at least 7.00.
For the molecule `O=C(Nc1cc(NC2CCC(O)C2)cc2c1C(c1cc(F)ccc1Cl)NC2=O)c1cc(F)cc(C(F)(F)F)c1` (stereo not drawn) [Compound I-359], the pIC50 is at least 7.00.
Consider `O=C(CCC(F)F)Nc1cc(NC(=O)c2cc(F)cc(C(F)(F)F)c2)c2c(c1)C(=O)NC2c1cc(F)ccc1Cl` (stereo not drawn) [Compound I-360], for which the pIC50 is at least 7.00.
`O=C(Nc1cc(NC(=O)C2CCO2)cc2c1C(c1cc(F)ccc1Cl)NC2=O)c1cc(F)cc(C(F)(F)F)c1` (stereo not drawn) [Compound I-361] gave a pIC50 of at least 7.00.
For `O=C(Nc1cc(B(O)O)cc2c1C(c1cc(F)ccc1Cl)NC2=O)c1cc(F)cc(C(F)(F)F)c1` (stereo not drawn) [Compound I-362], the negative logarithm of the IC50 (pIC50) is at least 7.00.
`O=C(Nc1cc(O)cc2c1C(c1cc(F)ccc1Cl)NC2=O)c1cc(F)cc(C(F)(F)F)c1` (stereo not drawn) [Compound I-363] had a pIC50 of at least 7.00.
Consider `O=C(Nc1cc(C2CCCO2)cc2c1C(c1cc(F)ccc1Cl)NC2=O)c1cc(F)cc(C(F)(F)F)c1` (stereo not drawn) [Compound I-364], for which the pIC50 was at least 7.00.
The result for `Cc1ccccc1C1NC(=O)c2c(P(C)(C)=O)ccc(NC(=O)c3cc(F)cc(C(F)(F)F)c3)c21` (stereo not drawn) [Compound I-365] reads 5.00 to 6.00; that for `O=C(Nc1cc(N2CC(F)(F)C2)nc2c1[C@H](c1cc(F)ccc1Cl)NC2=O)c1cc(F)cc(C(F)(F)F)c1` [Compound I-366], at least 7.00.
`O=C(Nc1cc(N2CC(F)(F)C2)nc2c1[C@@H](c1cc(F)ccc1Cl)NC2=O)c1cc(F)cc(C(F)(F)F)c1` [Compound I-367] gave a pIC50 of 5.00 to 6.00.
In the case of `CC1(F)CN(c2cc(NC(=O)c3cc(F)cc(C(F)(F)F)c3)c3c(n2)C(=O)NC3c2cc(F)ccc2Cl)C1` (stereo not drawn) [Compound I-368], the pIC50 is 6.30 to 7.00.
Molecule `Cc1ccccc1C1NC(=O)c2cccc(NC(=O)c3cc(C(F)(F)F)ccc3F)c21` (stereo not drawn) [Compound I-369] gave a pIC50 of 5.00 to 6.00.
The result for `O=C(Nc1cc(N2CC(F)(F)C2)cc2c1C(c1cc(F)ccc1Cl)NC2=O)c1cc(F)cc(C(F)(F)F)c1` (stereo not drawn) [Compound I-370] reads at least 7.00.
The molecule `O=C(Nc1cccc2c1C(c1ccc3ccccc3c1)NC2=O)c1cc(F)cc(C(F)(F)F)c1` (stereo not drawn) [Compound I-371] gave a pIC50 of 4.00 to 5.00.
In the case of `O=C(Nc1cccc2c1C(c1cc(F)ccc1Cl)NC2=O)c1cc(F)cc(C(F)(F)F)c1` (stereo not drawn) [Compound I-372] it was at least 7.00.
In turn, `COC(=O)c1cc(NC(=O)c2cc(F)cc(C(F)(F)F)c2)c2c(c1)C(=O)NC2c1cc(F)ccc1Cl` (stereo not drawn) [Compound I-373] had a pIC50 of at least 7.00.
In the case of `O=C(Nc1cc(C2(O)CC2)cc2c1C(c1cc(F)ccc1Cl)NC2=O)c1cc(F)cc(C(F)(F)F)c1` (stereo not drawn) [Compound I-374, N-[3-(2-chloro-5-fluorophenyl)-6-(1-hydroxycyclopropyl)-1-oxo-2,3-dihydro-1H-isoindol-4-yl]-3-fluoro-5-(trifluoromethyl)benzamide] it was at least 7.00; in that of `Cc1ccccc1C1NC(=O)c2cccc(NC(=O)c3nsc4ccc(Br)cc34)c21` (stereo not drawn) [Compound I-376], 6.00 to 6.30.
As to `Cc1ccccc1C1NC(=O)c2cccc(NC(=O)c3nsc4ccc(C#N)cc34)c21` (stereo not drawn) [Compound I-377], the pIC50 is 5.00 to 6.00.
